Experimental data published in a melting point compilation (Tetko et al.).

Conditions: a range is the spread between reports

Row | Compound | melting point [°C]
1 | CCCCCCS | -81 to -80
2 | CC1(C)COC(=O)C1O (configuration not stated) | 90 to 92
3 | CCc1ccncc1 | -91 to -90.5
4 | Oc1ccc(Br)cc1Cl | 49 to 50.5
5 | ClCC(Cl)Cl | -37 to -35
6 | O=C1C=CC(=O)N1 | 92 to 94
7 | COc1cc(CNC(=O)CCCCC=CC(C)C)ccc1O | 65 to 66
8 | O=[N+]([O-])c1ccccc1F | -8 to -6
9 | ClC(Br)Br | -22 to -20
10 | CCCCCCCCC#N | -34.2 to -34
11 | O=[N+]([O-])c1ccccc1I | 50 to 54
12 | ICCI | 80 to 83
13 | Nc1ccc([N+](=O)[O-])cn1 | 187 to 188
14 | CCCCCCCCCCCCCCCCCC(=O)CCCCCCCCCCCCCCCCC | 87 to 89
15 | O=C1OC2(c3ccc(O)cc3Oc3cc(O)ccc32)c2ccccc21 | 315 to 320
16 | OC(C(F)(F)F)C(F)(F)F | -4 to -3
17 | CCc1cccnc1 | -77 to -76.9
18 | COc1ccc2[nH]ccc2c1 | 54 to 57
19 | CN1CCCC1=O | -24 to -23

Row | Compound | melting point [°C]
20 | O=Cc1ccccc1 | -56.9 to -55.6
21 | Fc1ccc(C(F)(F)F)cc1 | -42 to -41.7
22 | N#CCC(N)=O | 120 to 122
23 | CCOC(=O)c1ccccc1N | 13 to 15
24 | C=C1CCC2CC1C2(C)C (configuration not stated) | -61.5 to -61
25 | C=C(C)C(C)CC (configuration not stated) | -134
26 | CC(C)S | -131 to -130
27 | N#Cc1cccc(C=O)c1 | 76.5 to 77
28 | COc1ccc2c(c1)CCCC2=O | 78 to 79
29 | O=S=O | -73 to -72
30 | CC(=O)NC(=O)CN | 138 to 142
31 | Cn1ccnc1S | 146 to 147
32 | O=C(Cl)c1cccc(C(=O)Cl)c1 | 43.5 to 44
33 | O=C(Cl)C(c1ccccc1)c1ccccc1 | 53 to 56.5
34 | COC(=O)c1cccnc1 | 42 to 42.5
35 | Oc1ccccc1-c1nc2ccccc2s1 | 131 to 132
36 | O=C(c1ccccc1)c1ccccn1 | 42 to 43
37 | OCC(Cl)(Cl)Cl | 18 to 19
38 | CCCCCCCCCCCCCC | 5.5 to 6

Row | Compound | melting point [°C]
39 | CCCCCCCCCCCCCCCCCC | 28 to 28.2
40 | NNC(=O)c1ccc(Br)cc1 | 166 to 168
41 | CCCCCCCCCCCCCCCC(=O)O | 61 to 62.5
42 | O=C[C@H](O)[C@@H](O)[C@@H](O)[C@H](O)CO | 166 to 167
43 | c1ccc(CN(Cc2ccccc2)c2ccccc2)cc1 | 69 to 70
44 | CC(=O)c1cc(C)ccc1O | 47 to 50
45 | NC(=O)C(F)(F)F | 72.5 to 73
46 | CCCCCCCC | -57 to -56.8
47 | C=CCC1CCCC1 | -111
48 | CCCC(C)(C)C | -124
49 | OC1c2ccccc2-c2ccccc21 | 154 to 156
50 | CC=CC=CCO | 30.5 to 31
51 | CCCC=C(C)C | -130
52 | OCCOc1ccccc1 | 12 to 14
53 | c1ccc2nc3ccccc3cc2c1 | 108 to 109
54 | N#CCCCCC#N | 1 to 2
55 | O=[N+]([O-])c1cc(F)ccc1F | -12 to -11.7
56 | Cc1ccccc1O | 29.8 to 33
57 | CCOC(=O)CC#N | -23 to -22
